Laboratory results: patent US8999998B2, “Pyrazolopyrimidine JAK inhibitor compounds and methods” (Genentech, Inc., priority 2009, dated 2015)

What was measured:
Type in all cases: biochemical
TYK2 kinase domain = TYK2 kinase domain (Homo sapiens (Human), UniProt P29597); test: TYK2 inhibition assay (Caliper LabChip, isolated kinase domain); conditions: 25 uM ATP, 1 nM TYK2; read-out: TYK2 enzymatic activity (Ki)
Excerpt: (§1) The catalytically active kinase domain of human JAK1, JAK2, JAK3 or TYK2 was purified from extracts of SF9 insect cells infected with a recombinant baculovirus expression vector encoding the human JAK1, JAK2, JAK3 or TYK2 kinase domains (JAK1 amino acid residues N852-D1154 according to the numbering of GenBank sequence accession number P23458, JAK2 amino acid residues D812-G1132 according to the numbering of GenBank sequence accession number NP_004963.1; JAK3 amino acid residues S783-S1124 according to the numbering of GenBank sequence accession number P52333, and TYK2 amino acid residues N873-C1187 according to the numbering of GenBank sequence accession number P29597). The activity of the JAK1, JAK2, JAK3 or TYK2 kinase domains can be measured by a number of direct and indirect methods, including quantification of phosphorylation of peptide substrates derived from the human JAK3 protein (Saltzman et al., Biochem. Biophys. Res. Commun. 246:627-633 (2004)). The activity of the JAK1, JAK2, JAK3 or TYK2 kinase domains was measured in vitro by monitoring phosphorylation of JAK3 derived peptides using the Caliper LabChip technology (see Examples).
(§2) The activity of the isolated JAK1, JAK2 or TYK2 kinase domain was measured by monitoring phosphorylation of a peptide derived from JAK3 ([…] fluorescently labeled on the N-terminus with 5-carboxyfluorescein using the Caliper LabChip technology (Caliper Life Sciences, Hopkinton, Mass.). […] Reactions were incubated at 22° C. in 384-well polypropylene microtiter plates for 30 minutes and then stopped by addition of 25 uL of an EDTA containing solution (100 mM Hepes pH 7.2, 0.015% Brij-35, 150 mM EDTA), resulting in a final EDTA concentration of 50 mM. After termination of the kinase reaction, the proportion of phosphorylated product was determined as a fraction of total peptide substrate using the Caliper LabChip 3000 according to the manufacturer's specifications. Ki values were then determined using the Morrison tight binding model. Morrison, J. F., Biochim. Biophys. Acta. 185:269-296 (1969); William, J. W. and Morrison, J. F., Meth. Enzymol., 63:437-467 (1979).

JAK2 kinase domain = JAK2 kinase domain (Homo sapiens (Human), UniProt O60674); test: JAK2 inhibition assay (Caliper LabChip, isolated kinase domain); conditions: 25 uM ATP, 0.2 nM JAK2; read-out: JAK2 enzymatic activity (Ki)
Excerpt: as §1, §2

JAK1 kinase domain = JAK1 kinase domain (Homo sapiens (Human), UniProt P23458); test: JAK1 inhibition assay (Caliper LabChip, isolated kinase domain); conditions: 25 uM ATP, 1.5 nM JAK1; read-out: JAK1 enzymatic activity (Ki)
Excerpt: as §1, §2

JAK3 kinase domain = JAK3 kinase domain (Homo sapiens (Human), UniProt P52333); test: JAK3 inhibition assay (Caliper LabChip, isolated kinase domain); conditions: 5 uM ATP, 5 nM JAK3; read-out: JAK3 enzymatic activity (Ki)
Excerpt: as §1, with “Previous studies have shown that the isolated kinase domains of human JAK1, JAK2, JAK3 or TYK2 phosphorylate peptide substrates in in vitro kinase assays (Saltzman et al., Biochem. Biophys. Res. Commun. 246:627-633 (2004)). The catalytically” for “The catalytically”
as §2, with “JAK3” for “JAK1, JAK2 or TYK2”

Chain of TYK2 kinase domain (P29597 873-1187): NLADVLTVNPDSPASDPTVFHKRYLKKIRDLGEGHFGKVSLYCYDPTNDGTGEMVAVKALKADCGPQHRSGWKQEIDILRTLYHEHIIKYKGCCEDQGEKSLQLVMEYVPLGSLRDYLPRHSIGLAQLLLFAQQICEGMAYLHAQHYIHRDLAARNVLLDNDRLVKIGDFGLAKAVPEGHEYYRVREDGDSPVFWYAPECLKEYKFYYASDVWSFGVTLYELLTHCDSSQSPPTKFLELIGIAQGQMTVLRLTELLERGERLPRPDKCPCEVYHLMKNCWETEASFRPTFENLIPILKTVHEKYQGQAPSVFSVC
Chain of JAK1 kinase domain (P23458 852-1154): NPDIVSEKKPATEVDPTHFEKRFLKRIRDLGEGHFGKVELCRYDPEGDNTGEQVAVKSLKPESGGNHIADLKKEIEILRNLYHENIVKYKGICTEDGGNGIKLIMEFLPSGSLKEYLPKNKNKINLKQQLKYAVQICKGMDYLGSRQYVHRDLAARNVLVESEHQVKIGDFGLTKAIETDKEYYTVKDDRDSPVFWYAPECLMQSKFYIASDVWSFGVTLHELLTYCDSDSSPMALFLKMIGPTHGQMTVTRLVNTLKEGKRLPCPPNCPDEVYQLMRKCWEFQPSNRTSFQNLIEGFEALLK
Chain of JAK2 kinase domain (O60674 812-1132): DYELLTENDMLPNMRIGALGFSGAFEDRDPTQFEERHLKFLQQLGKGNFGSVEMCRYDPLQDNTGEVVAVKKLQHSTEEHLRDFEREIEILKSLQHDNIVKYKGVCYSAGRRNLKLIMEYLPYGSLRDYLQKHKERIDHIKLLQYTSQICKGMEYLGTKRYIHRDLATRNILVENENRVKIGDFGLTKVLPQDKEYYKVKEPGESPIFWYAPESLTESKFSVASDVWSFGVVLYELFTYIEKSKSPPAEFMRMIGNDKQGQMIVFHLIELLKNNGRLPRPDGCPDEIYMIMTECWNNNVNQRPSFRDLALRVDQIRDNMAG
Chain of JAK3 kinase domain (P52333 783-1124): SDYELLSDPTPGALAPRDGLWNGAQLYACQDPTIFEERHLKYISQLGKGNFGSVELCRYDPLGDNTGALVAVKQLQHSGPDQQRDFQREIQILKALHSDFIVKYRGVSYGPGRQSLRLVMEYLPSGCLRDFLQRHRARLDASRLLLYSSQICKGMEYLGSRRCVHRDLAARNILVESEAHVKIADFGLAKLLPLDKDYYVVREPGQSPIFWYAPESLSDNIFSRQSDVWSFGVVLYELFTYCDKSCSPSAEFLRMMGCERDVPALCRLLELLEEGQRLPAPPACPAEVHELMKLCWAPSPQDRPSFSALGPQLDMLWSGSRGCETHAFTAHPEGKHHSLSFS

| Ki (TYK2 kinase domain) [nM] | Ki (JAK2 kinase domain) [nM] | Ki (JAK1 kinase domain) [nM] | Ki (JAK3 kinase domain) [nM] | SMILES |
| --- | --- | --- | --- | --- |
| 980 | 110 | 775 | 4100 | O=C(Nc1c[nH]nc1-n1cc(Cl)ccc1=O)c1cnn2cccnc12 [Example 194, N-(3-(5-chloro-2-oxopyridin-1(2H)-yl)-1H-pyrazol-4-yl)pyrazolo[1,5-a]pyrimidine-3-carboxamide] |
| 99.6 | 4.9 | 46.2 | 152 | Cc1cc(NC(=O)c2cnn3cccnc23)n(-c2cc(Cl)ccc2C)n1 [Example 6, N-(1-(5-chloro-2-methylphenyl)-3-methyl-1H-pyrazol-5-yl)pyrazolo[1,5-a]pyrimidine-3-carboxamide] |

The next lines start with the compound.

| SMILES | Ki (TYK2 kinase domain) [nM] | Ki (JAK2 kinase domain) [nM] | Ki (JAK1 kinase domain) [nM] | Ki (JAK3 kinase domain) [nM] |
| --- | --- | --- | --- | --- |
| Cc1cc(NC(=O)c2cnn3cccnc23)n(-c2cc(C#N)ccc2Cl)n1 [Example 38, N-(1-(2-chloro-5-cyanophenyl)-3-methyl-1H-pyrazol-5-yl)pyrazolo[1,5-a]pyrimidine-3-carboxamide] | 131 | 5.7 | 40.3 | 102 |
| COc1ccc(Cl)cc1-c1nn(CC(O)(C(F)(F)F)C(F)(F)F)cc1NC(=O)c1cnn2cccnc12 [Example 432, N-(3-(5-chloro-2-methoxyphenyl)-1-(3,3,3-trifluoro-2-hydroxy-2-(trifluoromethyl)propyl)-1H-pyrazol-4-yl)pyrazolo[1,5-a]pyrimidine-3-carboxamide] | 31 | 5.7 | 1.5 | 570 |
| COc1ccc(Cl)cc1-c1c(NC(=O)c2c(N)nn3cccnc23)cnn1CC(N)=O [Example 217, 2-amino-N-(1-(2-amino-2-oxoethyl)-5-(5-chloro-2-methoxyphenyl)-1H-pyrazol-4-yl)pyrazolo[1,5-a]pyrimidine-3-carboxamide] | 2.3 | 0.5 | 2.1 | 5.5 |
